Like-named read-outs stand apart in the source and are kept apart here.
How the values were obtained:
[1] = biological target: T1, SHP2 (full length) (Homo sapiens, UniProt Q06124); assay: Phosphatase assay (PTPase assay) with DiFMUP substrate; format: biochemical; conditions: SHP2 activated with SHP2 activating peptide; DiFMUP 80 μM, 2 hours; fluorescence; read-out: IC50 (PTPase aS say)
T1 construct: SHP2 (full length, diluted to 100 pM final concentration in reaction buffer, BPS bioscience, US); purchased BPS bioscience, US
T1 sequence (Q06124 1-593): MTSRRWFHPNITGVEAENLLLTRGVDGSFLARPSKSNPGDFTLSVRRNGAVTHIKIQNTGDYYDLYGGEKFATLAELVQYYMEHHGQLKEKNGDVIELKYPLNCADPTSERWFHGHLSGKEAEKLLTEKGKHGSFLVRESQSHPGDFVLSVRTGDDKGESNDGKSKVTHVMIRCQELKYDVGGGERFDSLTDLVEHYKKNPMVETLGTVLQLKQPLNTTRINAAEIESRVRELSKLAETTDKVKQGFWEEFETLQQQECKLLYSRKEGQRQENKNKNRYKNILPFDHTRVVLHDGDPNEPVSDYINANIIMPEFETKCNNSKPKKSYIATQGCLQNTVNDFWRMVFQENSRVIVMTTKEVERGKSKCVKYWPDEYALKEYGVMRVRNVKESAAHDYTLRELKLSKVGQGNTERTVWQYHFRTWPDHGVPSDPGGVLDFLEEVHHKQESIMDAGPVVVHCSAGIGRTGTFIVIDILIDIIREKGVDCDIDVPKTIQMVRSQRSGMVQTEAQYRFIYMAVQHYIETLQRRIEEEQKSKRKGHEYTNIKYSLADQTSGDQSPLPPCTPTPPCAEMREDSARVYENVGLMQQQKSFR

[2] = test system: phospho-ERK in MIA PaCa2 or H358 cells; assay: Phospho-ERK assay (AlphaLisa); format: cell-based; conditions: MIA PaCa2 or H358 cells, compound incubated 1.5 hours, read-out: IC50 (p-ERK)

Row | IC50 [1] | IC50 ([2]; 1.5 h) | SMILES | IC50 [2]
1 | < 3 nM | < 45 nM | COc1ccc(Cn2cnc3ccc(Sc4cnc(N5CCC6(CC5)CO[C@@H](C)[C@H]6N)cn4)c(Cl)c3c2=O)cc1F [Example 73, 6-((5-((3S,4S)-4-amino-3-methyl-2-oxa-8-azaspiro[4.5]decan-8-yl)pyrazin-2-yl)thio)-5-chloro-3-(3-fluoro-4-methoxybenzyl)quinazolin-4(3H)-one] | 
2 | 3 to 100 nM | 45 to 1500 nM | C[C@@H]1OCC2(CCN(c3cnc(Sc4ccc5ncn(CC6CCCN6C)c(=O)c5c4Cl)cn3)CC2)[C@@H]1N (stereo partly drawn) [Example 74, 6-((5-((3S,4S)-4-amino-3-methyl-2-oxa-8-azaspiro[4.5]decan-8-yl)pyrazin-2-yl)thio)-5-chloro-3-((l-methylpyrrolidin-2-yl)methyl)quinazolin-4(3H)-one] | 
3 | 3 to 100 nM | 45 to 1500 nM | C[C@@H]1OCC2(CCN(c3cnc(Sc4ccc5ncn(CC(F)(F)F)c(=O)c5c4Cl)cn3)CC2)[C@@H]1N [Example 75, 6-((5-((3S,4S)-4-amino-3-methyl-2-oxa-8-azaspiro[4.5]decan-8-yl)pyrazin-2-yl)thio)-5-chloro-3-(2,2,2-trifluoroethyl)quinazolin-4(3H)-one] | 
4 | 3 to 100 nM | 45 to 1500 nM | C[C@@H]1OCC2(CCN(c3cnc(Sc4ccc5ncn(CC(O)CF)c(=O)c5c4Cl)cn3)CC2)[C@@H]1N (stereo partly drawn) [Example 76, 6-((5-((3S,4S)-4-amino-3-methyl-2-oxa-8-azaspiro[4.5]decan-8-yl)pyrazin-2-yl)thio)-5-chloro-3-(3-fluoro-2-hydroxypropyl)quinazolin-4(3H)-one] | 
5 | < 3 nM | < 45 nM | C[C@@H]1OCC2(CCN(c3cnc(Sc4ccc5ncn(CCCF)c(=O)c5c4Cl)cn3)CC2)[C@@H]1N [Example 77, 6-((5-((3S,4S)-4-amino-3-methyl-2-oxa-8-azaspiro[4.5]decan-8-yl)pyrazin-2-yl)thio)-5-chloro-3-(3-fluoropropyl)quinazolin-4(3H)-one] | 
6 | < 3 nM | < 45 nM | C[C@@H]1OCC2(CCN(c3cnc(Sc4ccc5ncn(CN6CCOCC6)c(=O)c5c4Cl)cn3)CC2)[C@@H]1N [Example 78, 6-((5-((3S,4S)-4-amino-3-methyl-2-oxa-8-azaspiro[4.5]decan-8-yl)pyrazin-2-yl)thio)-5-chloro-3-(morpholinomethyl)quinazolin-4(3H)-one] | 
7 | < 3 nM | < 45 nM | C[C@@H]1OCC2(CCN(c3cnc(Sc4ccc5ncn(CC6(F)CCOCC6)c(=O)c5c4Cl)cn3)CC2)[C@@H]1N [Example 79, 6-((5-((3S,4S)-4-amino-3-methyl-2-oxa-8-azaspiro[4.5]decan-8-yl)pyrazin-2-yl)thio)-5-chloro-3-((4-fluorotetrahydro-2H-pyran-4-yl)methyl)quinazolin-4(3H)-one] | 
8 | < 3 nM | < 45 nM | C[C@@H]1OCC2(CCN(c3cnc(Sc4ccc5ncn(CC6(F)COC6)c(=O)c5c4Cl)cn3)CC2)[C@@H]1N [Example 80, 6-((5-((3S,4S)-4-amino-3-methyl-2-oxa-8-azaspiro[4.5]decan-8-yl)pyrazin-2-yl)thio)-5-chloro-3-((3-fluorooxetan-3-yl)methyl)quinazolin-4(3H)-one] | 
9 | < 3 nM | < 45 nM | C[C@@H]1OCC2(CCN(c3cnc(Sc4ccc5ncn(CC(C)(C)O)c(=O)c5c4Cl)cn3)CC2)[C@@H]1N [Example 81, 6-((5-((3S,4S)-4-amino-3-methyl-2-oxa-8-azaspiro[4.5]decan-8-yl)pyrazin-2-yl)thio)-5-chloro-3-(2-hydroxy-2-methylpropyl)quinazolin-4(3H)-one] | 
10 | < 3 nM | < 45 nM | C[C@@H]1OCC2(CCN(c3cnc(Sc4ccc5ncn(CCS(C)(=O)=O)c(=O)c5c4Cl)cn3)CC2)[C@@H]1N [Example 82, 6-((5-((3S,4S)-4-amino-3-methyl-2-oxa-8-azaspiro[4.5]decan-8-yl)pyrazin-2-yl)thio)-5-chloro-3-(2-(methylsulfonyl)ethyl)quinazolin-4(3H)-one] | 
11 | < 3 nM | < 45 nM | C[C@@H]1OCC2(CCN(c3cnc(Sc4ccc5ncn(CC6(O)CCOCC6)c(=O)c5c4Cl)cn3)CC2)[C@@H]1N [Example 83, 6-((5-((3S,4S)-4-amino-3-methyl-2-oxa-8-azaspiro[4.5]decan-8-yl)pyrazin-2-yl)thio)-5-chloro-3-((4-hydroxytetrahydro-2H-pyran-4-yl)methyl)quinazolin-4(3H)-one] | 
12 | 3 to 100 nM | > 1500 nM | C[C@@H]1OCC2(CCN(c3cnc(Sc4ccc5c(c4Cl)C(=O)N(Cc4ccccc4)CC5)cn3)CC2)[C@@H]1N [Example 85, 7-((5-((3S,4S)-4-amino-3-methyl-2-oxa-8-azaspiro[4.5]decan-8-yl)pyrazin-2-yl)thio)-2-benzyl-8-chloro-3,4-dihydroisoquinolin-1(2H)-one] | 
13 | 3 to 100 nM | 45 to 1500 nM | C[C@@H]1OCC2(CCN(c3cnc(Sc4ccnc(C(=O)NCc5cccnc5)c4Cl)cn3)CC2)[C@@H]1N [Example 87, 4-((5-((3S,4S)-4-amino-3-methyl-2-oxa-8-azaspiro[4.5]decan-8-yl)pyrazin-2-yl)thio)-3-chloro-N-(pyridin-3-ylmethyl)picolinamide] | 
14 | < 3 nM | < 45 nM | C[C@@H]1OCC2(CCN(c3cnc(Sc4ccc5ncn(Cc6ccccn6)c(=O)c5c4Cl)cn3)CC2)[C@@H]1N [Example 88, 6-((5-((3S,4S)-4-amino-3-methyl-2-oxa-8-azaspiro[4.5]decan-8-yl)pyrazin-2-yl)thio)-5-chloro-3-(pyridin-2-ylmethyl)quinazolin-4(3H)-one] | 
15 | 3 to 100 nM | 45 to 1500 nM | C[C@@H]1OCC2(CCN(c3cnc(Sc4ccc5ncn(CCN6CCCC6)c(=O)c5c4Cl)cn3)CC2)[C@@H]1N [Example 89] | 
16 | < 3 nM | < 45 nM | C[C@@H]1OCC2(CCN(c3cnc(Sc4ccc5ncn(CC(=O)c6cccnc6)c(=O)c5c4Cl)cn3)CC2)[C@@H]1N [Example 90, 6-((5-((3S,4S)-4-amino-3-methyl-2-oxa-8-azaspiro[4.5]decan-8-yl)pyrazin-2-yl)thio)-5-chloro-3-(2-oxo-2-(pyridin-3-yl]ethyl)quinazolin-4(3H)-one] | 
17 | 3 to 100 nM | 45 to 1500 nM | C[C@@H]1OCC2(CCN(c3cnc(Sc4ccc5ncn(C6CCCCC6)c(=O)c5c4Cl)cn3)CC2)[C@@H]1N [Example 91, 6-((5-((3S,4S)-4-amino-3-methyl-2-oxa-8-azaspiro[4.5]decan-8-yl)pyrazin-2-yl)thio)-5-chloro-3-cyclohexylquinazolin-4(3H)-one] | 
18 | < 3 nM | < 45 nM | CC(=O)Cn1cnc2ccc(Sc3cnc(N4CCC5(CC4)CO[C@@H](C)[C@H]5N)cn3)c(Cl)c2c1=O [Example 92, 6-((5-((3S,4S)-4-amino-3-methyl-2-oxa-8-azaspiro[4.5]decan-8-yl)pyrazin-2-yl)thio)-5-chloro-3-(2-oxopropyl)quinazolin-4(3H)-one] | 

Row | SMILES | IC50 [1] | IC50 ([2]; 1.5 h) | IC50 [2]
19 | COCCn1cnc2ccc(Sc3cnc(N4CCC5(CC4)Cc4ccccc4[C@H]5N)cn3)c(Cl)c2c1=O [Example 84, (S)-6-((5-(1-amino-1,3-dihydrospiro(indene-2,4′-piperidin]-1′-yl)pyrazin-2-yl)thio)-5-chloro-3-(2-methoxyethyl)quinazolin-4(3H)-one] | < 3 nM |  | < 45 nM

Source: patent US12029739B2, “SHP2 inhibitor and use thereof” (KANAPH THERAPEUTICS INC., priority 2021, dated 2024)
